Test results from PubChem BioAssay (NCI).
“And” between values parts separate entries of the source, which are not always exact repeats. Equal values may be shown once.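 Method: 48-hour compound exposure of cells in 96-well plates, five concentrations, linear interpolation of endpoints. GI50 = concentration required for 50% inhibition of growth. The concentration for full growth arrest is given as TGI.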

How the values were obtained:
Experiment in all cases: NCI tumour cell line growth inhibition, 48 h
RPMI-8226 leukemia = system: RPMI-8226 leukemia
DMS 114 small cell lung = system: DMS 114 small cell lung
DMS 273 small cell lung = system: DMS 273 small cell lung
HOP-18 NSCLC = system: HOP-18 NSCLC
KM20L2 colon = system: KM20L2 colon
LXFL 529 NSCLC = system: LXFL 529 NSCLC
M19-MEL melanoma = system: M19-MEL melanoma
SNB-78 CNS = system: SNB-78 CNS
XF 498 CNS = system: XF 498 CNS
DLD-1 colon = system: DLD-1 colon
RXF-631 renal = system: RXF-631 renal
P388 leukemia = system: P388 leukemia
P388/ADR leukemia = system: P388/ADR leukemia
SN12K1 renal = system: SN12K1 renal

SMILES	TGI (RPMI-8226 leukemia)	also measured
COC1=C(C)C(=O)c2c(c(COC(N)=O)c3n2CC(OC(C)=O)C3OC(C)=O)C1=O (configuration not stated)	1.36 µM	
C[C@H]1SC(c2ccc(Cl)cc2Cl)N(NC(=O)c2ccncc2)C1=O (some centres not stated)	> 100 µM	
CC1(C)[C@H]2CC[C@@]13C(=O)N1C(=O)O[C@@H]([C@H]1Cl)C(Cl)(COCc1ccccc1)C(=O)OCCO[C@H]3C2 (some centres not stated)	> 100 µM	
C[C@]12CC[C@@H]3c4cc(I)c(O)cc4CC[C@H]3[C@@H]1CC[C@@H]2O	37.7 µM	
COC(=O)c1cc(C#N)[nH]c1-c1cc(Br)cs1	51.2 µM	
C\C(=N/N=C1/C(=C\N(C)C)C(=O)NC(=O)N1C)c1ccc(Cl)cc1	> 100 µM	
COC(=O)C1=Nc2c(C)nn(-c3ccccc3)c2N=C(c2ccccc2)C1	> 10 µM	
COc1ccc(CN2C3CC2CN(c2ccc(-c4cc(OCC(C)(C)O)cn5ncc(C#N)c45)cn2)C3)cn1	> 100 µM	GI50 (RPMI-8226 leukemia): > 100 µM
Oc1[nH]c2ccccc2c1N=NC(=S)Nc1ccc(Cl)cc1	> 100 µM	
CN(C)CC1CCC(CN(C)C)C1=O (configuration not stated)	3.33 µM	TGI (DMS 114 small cell lung): 11.8 µM; TGI (DMS 273 small cell lung): 36.7 µM; TGI (HOP-18 NSCLC): 33.2 µM; TGI (KM20L2 colon): 38 µM; TGI (LXFL 529 NSCLC): 2.96 µM; TGI (M19-MEL melanoma): 7.96 µM; TGI (SNB-78 CNS): 17.2 µM; TGI (XF 498 CNS): 10.3 µM
COc1ccc(N(C(=O)Nc2ccc(Cl)c(Cl)c2)C2c3cccn3C(=O)N2c2ccc(Cl)c(Cl)c2)cc1 (configuration not stated)	> 100 µM	
O=C1NCN(c2ccccc2)C12CCN(CCCN1CCN(CCOC(c3ccc(F)cc3)c3ccc(F)cc3)CC1)CC2	4.95 µM	
COC(=O)/C(C#N)=C(/NCCN)Nc1ccccc1	> 100 µM	
COc1cc(NC(C)=O)ccc1C(=O)NN1C(=O)/C(=C/c2ccco2)N=C1c1ccccc1	31.8 µM	
CC(=O)OC1CCC2C3CCc4c(C)ccc(OS(=O)(=O)c5ccccc5)c4C3CCC12C (configuration not stated)	> 100 µM	
CCC(C(=O)C(=O)OC)P1(=O)OC(C)(C)CN1C(C)(C)C (configuration not stated)	> 100 µM	
C#CCN(Cc1ccc2nc(OC)c(OC)nc2c1)c1cc(OC)c(OC)c(OC)c1	28.3 µM	
O=C(C(Cl)=C(N1CCOCC1)N1CCOCC1)C(Cl)Cl	> 100 µM	
COC(=O)[C@H](Cc1ccccc1)NC(=O)CCCCCCC(=O)NO	> 100 µM	
C=C1c2nc3ccccc3n2C=C(c2ccc(Cl)cc2)N1c1ccc(OC)cc1	> 100 µM	
CCCSc1nc(-c2ccc(OC)cc2)c(C#N)c(=O)n1C1OC(COC(C)=O)C(OC(C)=O)C(OC(C)=O)C1OC(C)=O (configuration not stated)	> 100 µM	TGI (DMS 114 small cell lung): > 100 µM; TGI (KM20L2 colon): > 100 µM; TGI (LXFL 529 NSCLC): > 100 µM; TGI (M19-MEL melanoma): > 100 µM; TGI (SNB-78 CNS): > 100 µM
N#Cc1nc(C2CCC2)oc1N	> 100 µM	
CC(C)OC(=O)OCSc1ccccc1N=Cc1cccc([N+](=O)[O-])c1	> 10 µM	

SMILES	TGI (RPMI-8226 leukemia)	also measured
CC(=O)OC1C(COC(=O)c2ccccc2)OC(Nc2ncc(-c3ccc(Br)cc3)s2)C(OC(=O)c2ccccc2)C1OC(=O)c1ccccc1 (configuration not stated)	> 100 µM	
CCOC(=O)C1CCC(=O)N1C(=O)c1ccccc1 (configuration not stated)	> 100 µM	
COc1cc2c(cc1Cc1c(F)cccc1Cl)nc(-c1c(F)cccc1Cl)n2Cc1c(F)cccc1Cl	> 100 µM	
CSc1n[nH]c(N)c1C(=O)Nc1ccccc1	> 100 µM	
O=[N+]([O-])c1ccc2c(c1)C1=NN(c3ccccc3)C(c3ccccc3Br)C1CCC2 (configuration not stated)	48.4 µM	
CO[C@@H]1O[C@H](C(=O)c2ccccc2)[C@H]2OC(C)(C)O[C@@H]12	> 100 µM	
N#Cc1c(-c2ccccc2)cc(-c2ccc(Cl)cc2)[nH]c1=S	80.2 µM	
CC(=O)c1cnc2oc3ccc(O)cc3c2c1-c1ccccc1	> 100 µM	
O=C1CSC2=NC3=C(COC/C3=C\c3ccc(Br)cc3)C(c3ccc(Br)cc3)N12 (configuration not stated)	> 100 µM	
[O-]/[N+](=C\c1ccccc1OC(=S)S)c1ccc(Cl)cc1	> 100 µM	
C=Cc1ccccc1C1(O)C=CC(OC)(OC)C=C1	45.2 µM	
Cc1c2c(OCC3CCCCO3)nn(C)c(=O)c2c(C)n1-c1ccccc1 (configuration not stated)	> 100 µM	
NC(=O)N/N=C1\CC2C3CC4C2C4C13 (configuration not stated)	> 100 µM	
COc1cc(/C=C/C=C2\CC/C(=C\C=C\c3ccc(O)c(OC)c3)C2=O)ccc1O	> 100 µM	
CCCCCCCCCc1nn2c(Cc3ccccc3)nnc2s1	77.2 µM	
CCOC(=O)/C=C(\C(=O)OCC)n1ccc(=O)n(Cc2cn(COCCOC(C)=O)nn2)c1=O	55.6 µM	
CN(C)CCC(=O)/C=C\c1ccccc1	34.4 µM	TGI (DLD-1 colon): 31.8 µM; TGI (DMS 114 small cell lung): 33.7 µM; TGI (DMS 273 small cell lung): 33.7 µM; TGI (HOP-18 NSCLC): 43.5 µM; TGI (KM20L2 colon): 86.1 µM; TGI (LXFL 529 NSCLC): 26.9 µM; TGI (M19-MEL melanoma): 37.4 µM; TGI (RXF-631 renal): 60.4 µM; TGI (SNB-78 CNS): 37.6 µM; TGI (XF 498 CNS): 28.4 µM
O=c1[nH]c(=O)n(C2CC(O)C(CO)O2)cc1OCc1ccccc1 (configuration not stated)	> 100 µM	
O=C(N/N=C/c1ccc(Br)cc1)N/N=C/c1ccc(Br)cc1	40.1 µM	
C=C(CN(C)C)C(=O)c1ccccc1[N+](=O)[O-]		TGI (DLD-1 colon): 29.5 µM; TGI (DMS 114 small cell lung): 39.1 µM; TGI (DMS 273 small cell lung): 33.7 µM; TGI (HOP-18 NSCLC): 32.7 µM; TGI (KM20L2 colon): > 54.2 µM; TGI (LXFL 529 NSCLC): 30.3 µM; TGI (M19-MEL melanoma): 32 µM; GI50 (RPMI-8226 leukemia): 15.1 µM and 2.55 µM; TGI (RXF-631 renal): 34.4 µM; TGI (SNB-78 CNS): 71.4 µM; TGI (XF 498 CNS): 31.2 µM
COc1cc2c(cc1OC)-c1cc3ccccc3c(=O)n1CC2	35 µM	
CC(=O)OCc1c(O)c2c(c(O)c1COC(C)=O)C(=O)C=CC2=O	> 100 µM	TGI (DMS 114 small cell lung): 25.4 µM; TGI (DMS 273 small cell lung): 34.3 µM; TGI (HOP-18 NSCLC): 35.8 µM; TGI (KM20L2 colon): 32.7 µM; TGI (LXFL 529 NSCLC): 10.4 µM; TGI (M19-MEL melanoma): 3.54 µM; TGI (SNB-78 CNS): 28 µM
N#Cc1nc(NC(=O)c2ccccc2C(=O)O)c(C#N)[nH]1	> 100 µM	

SMILES	TGI (RPMI-8226 leukemia)	also measured
O=C1c2ccccc2NC(=S)[C@@H]2CCCN12	> 100 µM	
COc1ccc(CC2COc3cc(O)cc(O)c3C2=O)cc1O (configuration not stated)	28.5 µM	
CC(=O)c1ccc2c(c1)CC1(C2)Cc2ccccc2C1=O (configuration not stated)	> 100 µM	
CCOC(=O)C#Cc1ccccc1	35.2 µM	
COC1CC(OC2CCC3(C)C(=CCC4C3C(OC(C)=O)C(OC(=O)CC(C)C)C3(C)C(C(C)=O)CCC43O)C2)OC(C)C1OC1CC(OC)C(OC2CC(OC)C(OC3OC(C)C(OC4OC(CO)C(O)C(O)C4O)C(OC)C3O)C(C)O2)C(C)O1 (configuration not stated)	> 75 µM	
CC12CCCC3(CC(=O)C(C)(C)C3C(=O)C1)C2 (configuration not stated)	> 100 µM	
C[n+]1c(-c2ccc(/C=C/C=N\NC(=O)c3ccc(C(=O)N/N=C\C=C\c4ccc(-c5cn6ccccc6[n+]5C)cc4)cc3)cc2)cn2ccccc21	> 84.6 µM	
O=C(c1ccncc1)C1C(=O)c2ccccc2C1C1(O)c2ccccc2CC1C(O)c1ccncc1 (configuration not stated)	90.2 µM	
O=c1cc(-c2ccccc2)oc2c(-c3cc(Cl)cc4c(=O)cc(-c5ccccc5)oc34)cc(Cl)cc12	> 100 µM	
S=c1cc(-c2ccc3c(c2)OCO3)s[nH]1	> 100 µM	
CCOP(=O)(/C=C\n1ccc(N)nc1=O)OCC	> 100 µM	
CN(C)CCNC(=O)c1cccc2nc(-c3ccccc3)oc12	> 100 µM	TGI (DLD-1 colon): > 100 µM; TGI (DMS 114 small cell lung): > 100 µM; TGI (HOP-18 NSCLC): > 100 µM; TGI (KM20L2 colon): > 100 µM; TGI (M19-MEL melanoma): 99.5 µM; TGI (P388 leukemia): 20.3 µM; TGI (P388/ADR leukemia): > 64.3 µM; TGI (SN12K1 renal): > 75.5 µM; TGI (SNB-78 CNS): > 100 µM; TGI (XF 498 CNS): > 91.9 µM
COc1ccc(-c2cc(-c3ccccc3)[nH]c(=S)c2C#N)cc1	51.7 µM	
CC(C(=O)O)C(C)(O)C(=O)O (configuration not stated)	> 100 µM	
O=c1[nH]c(Nc2cccc(CO)c2)nc2nc[nH]c12	> 100 µM	
Cc1ccc(/C=C2\Cc3c(C)cc(C)cc3C2=O)c(C(=O)O)c1	53.1 µM	
CCOC(=O)c1cn2c(n1)sc1cc(Cl)cc(Cl)c12	> 100 µM	
NS(=O)(=O)c1cccc(NC(=S)NC(=O)Nc2ccc(Cl)c(Cl)c2)c1	41.7 µM	
COc1c(O)c2c(=O)cc(OC)c3c4c(OC)cc(=O)c5c(O)c(OC)c6c(c(c1C(C(C)O)C6C(C)O)c23)c54 (configuration not stated)	4.8 µM	
c1c2c(cc(-n3nnc4c3CCCCCC4)c1-n1nnc3c1CCCCCC3)CCCCCC2		TGI (DMS 273 small cell lung): 12.3 µM; TGI (M19-MEL melanoma): 25.5 µM; TGI (RXF-631 renal): 34.8 µM; TGI (SNB-78 CNS): 39.4 µM; TGI (XF 498 CNS): 9.62 µM
COC(=O)C1(Cc2ccc3c(c2)CCC3)Cc2ccccc2C1	54.6 µM	
